One data set addresses M. tuberculosis MenA (Mycobacterium tuberculosis, UniProt P9WIP3). Description: MenA enzyme inhibitory assay. Particulars: for IC50: MenA Inhibition IC50, Mtb MenA, dose-response of DMMK formation. The format is biochemical.
Data set [1] concerns M. tuberculosis electron transport system. Kind of data set: Oxygen consumption assay. The format is cell-based. Particulars: for electron transport system inhibition (conclusion): from oxygen consumption assay.
In data set [2] the test system is M. tuberculosis H37Rv. Description: MIC, Mycobacterium species panel. The format is cell-based.
Data set [3] deals with M. bovis, M. intracellulare, and M. smegmatis. The format is cell-based, Mycobacterium species.
A further data set can be described thus: in vitro. Particulars: monkey.
The subject of the next data set is M. bovis BCG. Description: microbe, parasite or virus in culture. The format is cell-based. The conditions noted are these: Mycobacterium tuberculosis variant bovis BCG.
Data set [4] relates to M. intracellulare ATCC15984. Kind of data set: MIC, Mycobacterium species panel. The format is cell-based.
Data set [5] relates to M. tuberculosis H37Rv. Description: Microplate alamar blue assay. The format is cell-based. The conditions noted are these: Mycobacterium tuberculosis, read-out: MIC against Mtb (MABA). (The colour change of resazurin is a common sign of viable cells or microbes.)

Each structure is given as a SMILES string. ≈ marks a conversion by molar mass, not a printed value.

Usually IC50 stands for the concentration at which inhibition is half-maximal.

Sequence of M. tuberculosis MenA (P9WIP3 whole entry): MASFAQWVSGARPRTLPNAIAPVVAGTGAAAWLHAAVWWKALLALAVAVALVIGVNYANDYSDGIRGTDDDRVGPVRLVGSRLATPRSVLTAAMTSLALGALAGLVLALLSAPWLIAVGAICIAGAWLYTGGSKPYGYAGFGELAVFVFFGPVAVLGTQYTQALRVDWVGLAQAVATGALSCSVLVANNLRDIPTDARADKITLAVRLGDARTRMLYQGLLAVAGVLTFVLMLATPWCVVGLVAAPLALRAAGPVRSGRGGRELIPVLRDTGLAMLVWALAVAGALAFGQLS

As for `CCCCCCC[C@H](O)c1cccc(CN2CCC(COc3cccc(C(=O)c4ccc(Cl)cc4)c3)CC2)c1` [(S)-3, (S)-(4-chlorophenyl)(3-((1-(3-(1-hydroxyoctyl)benzyl)piperidin-4-yl)methoxy)phenyl) methanone], on M. tuberculosis MenA, half-maximal inhibition (IC50) required 20 µM.
Turning to `CCCCCC[C@@H](CN1CCC(COc2ccc(C(=O)c3ccc(Cl)cc3)c(Cl)c2)CC1)OC(N)=O` [(S)-17], in data set [1] (Mtb, 37 °C, 22h, above the MIC), the “concentration showing decolorization of methylene blue” value was 12.5 µg/mL.
Compound `NNC(=O)c1ccncc1` [INH, isoniazid] yielded an MIC in the data set on M. tuberculosis H37Rv [2] of 0.24 µg/mL (≈ 1.75 µM).
For `CCCCCC[C@H](CN1CCC(COc2cccc(C(=O)c3ccc(Cl)cc3)c2)CC1)OC(N)=O` [(R)-12, (R)-1-(4-((3-(4-chlorobenzoyl)phenoxy)methyl)piperidin-1-yl)octan-2-yl carbamate], the “killing concentration, other Mycobacterium species” value in data set [3] is recorded as 3.0~6.5 μg/mL. In data set [1], the “electron transport system inhibition (conclusion)” value is given as “very weak (or are not) electron transport system inhibitors”. Moreover, the “fold better MenA enzyme inhibitory activity compared to the alcohol (R)-11” value at M. tuberculosis MenA (Mtb MenA IC50 comparison) is reported as 6 fold.
In the case of `CCCCCC[C@H](CN1CCC(COc2cccc(C(=NOC)c3ccc(Cl)cc3)c2)CC1)OC(N)=O` [(R)-13, (R)-1-(4-((3-((4-Chlorophenyl)(methoxyimino)methyl)phenoxy)methyl)piperidin-1-yl)octan-2-yl carbamate], the selectivity ratio in “in vitro” was over 10. The “killing concentration, other Mycobacterium species” value in data set [3] is given as 3.0~6.5 μg/mL. Moreover, the MIC amounted to 2.95 µg/mL (≈ 5.56 µM) against M. bovis BCG, 6.5 µg/mL (≈ 12.3 µM) in data set [4] and 2.31 µg/mL (≈ 4.36 µM) with M. tuberculosis H37Rv [5]. The half-maximal inhibitory concentration (IC50) against M. tuberculosis MenA was 1.2 µM.
At M. tuberculosis MenA, `CCCCCCC[C@@H](O)c1cccc(CN2CCC(COc3cccc(C(=NOC)c4ccc(Cl)cc4)c3)CC2)c1` [(R)-15, (R)-(4-chlorophenyl)(3-((1-(3-(1-hydroxyoctyl)benzyl)piperidin-4-yl)methoxy)phenyl)methanone O-methyl oxime] gave an IC50 of 15 µM.
`CCCCCC[C@H](CN1CCC(COc2ccc(C(=O)c3ccc(Cl)cc3)c(Cl)c2)CC1)OC(N)=O` [(R)-17, (R)-1-(4-((3-chloro-4-(4-chlorobenzoyl)phenoxy)methyl)piperidin-1-yl)octan-2-yl carbamate]: the “electron transport system inhibition (conclusion)” value in data set [1] is given as “very weak (or are not) electron transport system inhibitors”.
In the case of `CCCCCCC[C@H](O)c1cccc(CN2CCC(COc3ccc(C(=NOC)c4ccc(Cl)cc4)c(Cl)c3)CC2)c1` [(S)-20, (S)-(2-Chloro-4-((1-(3-(1-hydroxyoctyl)benzyl)piperidin-4-yl)methoxy)phenyl)(4-chlorophenyl) methanone O-methyl oxime], 20 µM corresponded to half-maximal inhibition on M. tuberculosis MenA (IC50).
As for `CCCCCCC[C@@H](O)c1cccc(CN2CCC(COc3ccc(C(=NOC)c4ccc(Cl)cc4)c(Cl)c3)CC2)c1` [(R)-20, (R)-(2-Chloro-4-((1-(3-(1-hydroxyoctyl)benzyl)piperidin-4-yl)methoxy)phenyl)(4-chlorophenyl) methanone O-methyl oxime], the IC50 against M. tuberculosis MenA is 15 µM.

For the origin of these results see article PMC3375340 (Journal of Medicinal Chemistry, 2012).
